The CheMixHub viscosity set
Values joined by “and” are separate entries in the source; they are usually repeats but may differ in a detail not shown here. Equal entries are not always repeated.

Test: xn = mol fraction of the nth substance listed

CCCO + CO
Details	viscosity [mPa·s]
293.15 K, 101 kPa, x2 = 0.25	1.379
293.15 K, 101 kPa, x2 = 0.5	1.015
293.15 K, 101 kPa, x2 = 0.75	0.825
293.15 K, 101.3 kPa, x2 = 0.174	1.78
293.15 K, 101.3 kPa, x2 = 0.339	1.45
293.15 K, 101.3 kPa, x2 = 0.51	1.16
293.15 K, 101.3 kPa, x2 = 0.741	0.857
293.15 K, 101.3 kPa, x2 = 0.873	0.711
298.15 K, 101 kPa, x2 = 0.25	1.243
298.15 K, 101 kPa, x2 = 0.5	0.931
298.15 K, 101 kPa, x2 = 0.75	0.775
298.15 K, 101.33 kPa, x2 = 0.1414	1.672
298.15 K, 101.33 kPa, x2 = 0.2419	1.483
298.15 K, 101.33 kPa, x2 = 0.3419	1.315
298.15 K, 101.33 kPa, x2 = 0.4462	1.159
298.15 K, 101.33 kPa, x2 = 0.5137	1.067
298.15 K, 101.33 kPa, x2 = 0.5731	0.992
298.15 K, 101.33 kPa, x2 = 0.7216	0.825
298.15 K, 101.33 kPa, x2 = 0.8038	0.744
298.15 K, 101.33 kPa, x2 = 0.8805	0.662
303.15 K, 101 kPa, x2 = 0.25	1.128
303.15 K, 101 kPa, x2 = 0.5	0.856
303.15 K, 101 kPa, x2 = 0.75	0.717
308.15 K, 101 kPa, x2 = 0.25	1.028
308.15 K, 101 kPa, x2 = 0.5	0.788
308.15 K, 101 kPa, x2 = 0.75	0.663
313.15 K, 101 kPa, x2 = 0.25	0.938
313.15 K, 101 kPa, x2 = 0.5	0.728
313.15 K, 101 kPa, x2 = 0.75	0.615
313.15 K, 101.3 kPa, x2 = 0.174	1.17
313.15 K, 101.3 kPa, x2 = 0.339	0.986
313.15 K, 101.3 kPa, x2 = 0.51	0.822
313.15 K, 101.3 kPa, x2 = 0.741	0.624
313.15 K, 101.3 kPa, x2 = 0.873	0.53
318.15 K, 101 kPa, x2 = 0.25	0.859
318.15 K, 101 kPa, x2 = 0.5	0.673
318.15 K, 101 kPa, x2 = 0.75	0.571
323.15 K, 101 kPa, x2 = 0.25	0.787
323.15 K, 101 kPa, x2 = 0.5	0.623
323.15 K, 101 kPa, x2 = 0.75	0.531

COCCOCCOC + COC(=O)OC
viscosity [mPa·s], 101.33 kPa
Details	298.15 K	308.15 K	318.15 K
x1 = 0.0428	0.608	0.536	0.485
x1 = 0.0832	0.626	0.55	0.496
x1 = 0.149	0.66	0.576	0.516
x1 = 0.2102	0.693	0.6	0.536
x1 = 0.2752	0.723	0.626	0.556
x1 = 0.3253	0.752	0.647	0.571
x1 = 0.3937	0.784	0.674	0.592
x1 = 0.4775	0.818	0.701	0.615
x1 = 0.5765	0.855	0.733	0.641
x1 = 0.6623	0.884	0.758	0.661
x1 = 0.7219	0.903	0.774	0.675
x1 = 0.8014	0.93	0.792	0.691
x1 = 0.8649	0.949	0.807	0.702
x1 = 0.8944	0.958	0.813	0.708
x1 = 0.9047	0.961	0.816	0.71
x1 = 0.9232	0.966	0.821	0.713
x1 = 0.9316	0.969	0.823	0.714
x1 = 0.9372	0.97	0.823	0.715
x1 = 0.9528	0.975	0.826	0.718

COCCOCCOC + COC(=O)c1ccccc1
viscosity [mPa·s], 101.33 kPa
Details	x1 = 0.1017	x1 = 0.1985	x1 = 0.3026	x1 = 0.3989	x1 = 0.4978	x1 = 0.599	x1 = 0.6958	x1 = 0.7991	x1 = 0.8979
298.15 K	1.707	1.622	1.532	1.448	1.367	1.286	1.209	1.129	1.055
303.15 K	1.542	1.467	1.389	1.317	1.245	1.173	1.105	1.036	0.971
308.15 K	1.401	1.334	1.264	1.2	1.137	1.073	1.014	0.953	0.894
313.15 K	1.279	1.218	1.155	1.1	1.044	0.987	0.934	0.879	0.828
318.15 K	1.169	1.116	1.061	1.012	0.962	0.911	0.862	0.814	0.768

COCCOCCOC + COC(C)=O
viscosity [mPa·s], 101.33 kPa
Details	x1 = 0.1	x1 = 0.198	x1 = 0.2969	x1 = 0.4015	x1 = 0.4988	x1 = 0.5951	x1 = 0.6954	x1 = 0.7941	x1 = 0.8973
298.15 K	0.441	0.498	0.559	0.621	0.683	0.741	0.801	0.861	0.922
303.15 K	0.418	0.47	0.526	0.582	0.639	0.691	0.746	0.799	0.855
308.15 K	0.396	0.445	0.496	0.548	0.6	0.646	0.696	0.745	0.795
313.15 K	0.376	0.418	0.469	0.516	0.564	0.607	0.652	0.697	0.741

ClC(Cl)C(Cl)Cl + COC(C)=O
303.15 K, 101.3 kPa
Details	viscosity [mPa·s]
x2 = 0.103	1.379
x2 = 0.1999	1.268
x2 = 0.3012	1.147
x2 = 0.3998	1.029
x2 = 0.5031	0.8951
x2 = 0.6017	0.764
x2 = 0.6999	0.6464
x2 = 0.8014	0.5324
x2 = 0.9019	0.4308

CCCCCCN + COCCO
308.15 K, 101 kPa
Details	viscosity [mPa·s]
x2 = 0.1567	0.8278
x2 = 0.2965	1.059
x2 = 0.4194	1.245
x2 = 0.5291	1.381
x2 = 0.6276	1.456
x2 = 0.7166	1.459
x2 = 0.7973	1.434
x2 = 0.8708	1.397
x2 = 0.9382	1.338

CNc1ccccc1 + CS(C)=O
303 K, 101.33 kPa
Details	viscosity [mPa·s]
x1 = 0.101	1.844
x1 = 0.2001	1.861
x1 = 0.3007	1.939
x1 = 0.3986	2.046
x1 = 0.4987	2.03
x1 = 0.6003	2.106
x1 = 0.6987	2.12
x1 = 0.8007	2.057
x1 = 0.9015	1.911

Oc1ccccc1 + CS(C)=O
viscosity [mPa·s], 101 kPa
Details	x2 = 0.2	x2 = 0.3	x2 = 0.4	x2 = 0.5	x2 = 0.6	x2 = 0.7	x2 = 0.8	x2 = 0.9
298.15 K	8.913	7.767	6.467	5.173	4.111	3.282	2.726	2.308
308.15 K	5.87	5.328	4.618	3.826	3.127	2.579	2.192	1.902
318.15 K	4.15	3.888	3.486	2.977	2.489	2.09	1.794	1.577

Oc1ccccc1 + C[N+](C)(C)CCO.[Cl-]
viscosity
Details	101 kPa	101.33 kPa
293.15 K, x2 = 0.2	–	61.78 mPa·s
293.15 K, x2 = 0.25	–	72.04 mPa·s
293.15 K, x2 = 0.333	137.7 mPa·s	–
298.15 K, x1 = 0.7	–	122.5 mPa·s
298.15 K, x1 = 0.8	–	56.11 mPa·s and 39.28 mPa·s and 30.65 mPa·s
298.15 K, x1 = 0.9	–	26.18 mPa·s
298.15 K, x2 = 0.333	99.81 mPa·s	–
303.15 K, x2 = 0.2	36.55 mPa·s	37.73 mPa·s
303.15 K, x2 = 0.25	41.2 mPa·s	43.1 mPa·s
303.15 K, x2 = 0.333	75.03 mPa·s and 76.44 mPa·s	–
308.15 K, x2 = 0.333	57.85 mPa·s	–
313.15 K, x2 = 0.2	23.57 mPa·s	24.63 mPa·s
313.15 K, x2 = 0.25	26.84 mPa·s	27.84 mPa·s
313.15 K, x2 = 0.333	46.41 mPa·s and 45.29 mPa·s	–
318.15 K, x2 = 0.333	35.93 mPa·s	–
323.15 K, x2 = 0.2	16.21 mPa·s	17.07 mPa·s
323.15 K, x2 = 0.25	18.62 mPa·s	19.11 mPa·s
323.15 K, x2 = 0.333	30.68 mPa·s and 28.71 mPa·s	–

Oc1ccccc1 + Cc1cccc(O)c1
298.15 K, 101 kPa
Details	viscosity [mPa·s]
x1 = 0.1259	12.5
x1 = 0.2449	11.69
x1 = 0.3137	11.31
x1 = 0.3848	10.95
x1 = 0.4502	10.7
x1 = 0.5174	10.4
x1 = 0.6352	9.961
x1 = 0.7325	9.698
x1 = 0.819	9.398
x1 = 0.8921	9.206
x1 = 0.9301	9.105

CC=CC(=O)O + Cc1ccccc1
viscosity [mPa·s], 101 kPa
Details	298.15 K	303.15 K	313.15 K	323.15 K
x1 = 0.0503	0.5712	0.5371	0.4796	0.4317
x1 = 0.0975	0.5997	0.5609	0.4998	0.4502
x1 = 0.148	0.6218	0.5858	0.5213	0.4671

CCCCCCN + Cc1ccccc1
303.15 K, 101 kPa
Details	viscosity [mPa·s]
x2 = 0.1238	0.6558
x2 = 0.2561	0.6124
x2 = 0.3598	0.5834
x2 = 0.4481	0.5588
x2 = 0.5709	0.5327
x2 = 0.6774	0.5177
x2 = 0.7639	0.5072
x2 = 0.8616	0.5035
x2 = 0.9319	0.5102

COCCOCCOC + ClC(Cl)(Cl)Cl
298.15 K, 101.33 kPa
Details	viscosity [mPa·s]
x1 = 0.0934	0.965
x1 = 0.1967	0.995
x1 = 0.3018	1.023
x1 = 0.4053	1.044
x1 = 0.4892	1.059
x1 = 0.5352	1.06
x1 = 0.592	1.057
x1 = 0.6503	1.052
x1 = 0.6902	1.043
x1 = 0.7963	1.031
x1 = 0.8656	1.019
x1 = 0.9021	1.011
x1 = 0.9343	1.001

COCCOCCOC + ClC(Cl)Cl
298.15 K, 101.33 kPa
Details	viscosity [mPa·s]
x1 = 0.0986	0.727
x1 = 0.2039	0.946
x1 = 0.2993	1.028
x1 = 0.3966	1.082
x1 = 0.4825	1.094
x1 = 0.5247	1.093
x1 = 0.5864	1.08
x1 = 0.6365	1.072
x1 = 0.7006	1.054
x1 = 0.7976	1.033
x1 = 0.8985	1.011
x1 = 0.9325	1.008

Oc1ccccc1 + Clc1ccccc1
293.15 K, 101 kPa
Details	viscosity [mPa·s]
x1 = 0.0584	0.825
x1 = 0.115	0.888
x1 = 0.2493	1.122
x1 = 0.3435	1.274
x1 = 0.4323	1.673
x1 = 0.5436	2.218
x1 = 0.6243	2.748
x1 = 0.7492	4.07
x1 = 0.84	5.555
